From patent US4550172A, “Novel heterocyclic compounds as antiallergic agents” (American Home Products Corporation, priority 1984, dated 1985)

Tested on: LTD4 induced bronchoconstriction
Assay: inhibition of LTD4-induced bronchospasm in guinea pigs (SRS-A antagonist properties)
Type: in vivo, guinea pigs (male Hartley strain)
Details: LTD4 for induction, compound 50 mg/kg intraduodenal, 10 minutes before induction of bronchospasm
Procedure: The assay of this Example measures the in vivo ability of the components of the invention to inhibit the bronchospasm induced in guinea pigs by the exogenously administered leukotrienes C4 and/or D4. This assay is essentially a measure of the SRS-A antagonist properties of the compounds tested.
This assay is carried out as follows:
Male Hartley strain guinea pigs (350-600 g) are anesthetized with pentobarbital sodium (50 mg/kg, i.p.). The jugular vein is cannulated for injection of drugs and the carotid artery for monitoring blood pressure. The trachea is cannulated for artificial ventilation by a miniature Starling pump and for indirect measurement of respiratory volume changes as described infra. Additional pentobarbital sodium (15 mg/kg, i.v.) is administered to arrest spontaneous respiration. Submaximal bronchoconstrictor responses are established in control animals by varying the dose-levels of leukotriene. Intravenous dose-levels for LTC4 range from 1 to 2 μg/kg and for LTD4 the range is from 0.3 to 1 μg/kg. The aerosol bronchoprovocation dose for LTC4 is generated from 1.6 μM solution and for LTD4 from a 2.0 μM solution.
Test drugs are administered either intravenously, intraduodenally, by aerosol or orally at 1 or 10 minutes before induction of bronchospasm by administration of either LTC4 or LTD4 at the predetermined dose-levels. Aerosols of soluble drugs or leukotrienes are produced in-line for 10 seconds only by actuation of an ultrasonic nebulizer (Monaghan). Aerosolized drug dosage is expressed in terms of solution concentration and by a fixed aerosol exposure time (approximately 10 seconds). Control animals receive saline in place of drug.
Respiratory volume changes are determined by a calibrated piston whose travel is recorded, via a linear transducer, on a Beckman Dynograph recorder. Maximal bronchoconstrictor volume is determined by clamping off the trachea at the end of the experiment. Overflow volumes at 1, 3 and 5 minutes are obtained from the recorded charts.
The overflow volume at 1, 3 and 5 minutes is expressed as a percentage of maximal bronchoconstriction. Combined group values are used from each of these time intervals to determine the inhibitory effect of drugs. [formula] Students t-test for unpaired data is used to determine statistical significance. Dose response curves are generated and ED50 doses are interpolated from the regression lines.
Results for a compound of the invention in this assay, using LTD4 for induction of bronchospasm, is given below: […]

| SMILES | % Inhibition Overflow Volume at 3 min. | % Inhibition Overflow Volume at 5 min. |
| --- | --- | --- |
| O=C1CCC(=O)N1c1cccc(OCc2nc3ccccc3s2)c1 [Example 1, N-[3-[(2-benzothiazolyl)methoxy]phenyl]pyrrolidin-2,5-dione] | 63% | 68% |
| Cn1c(COc2cccc(N3C(=O)CCC3=O)c2)nc2ccccc21 [Example 2, N-[3-[(1-methyl-2-benzimidazolyl)methoxy]phenyl]pyrrpolidin-2,5-dione] | 75% | 78% |
